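Dose response: 5 concentrations. Exposure: 48 h. Format: 96-well plates. Endpoint: linear interpolation; highest concentration if not reached. GI50 marks 50% less growth.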 Activity calls are given as the source filed them. No stated cut-off is given here; in the data, active = GI50 up to about 1.1 µM and inactive = higher.
Experiments:
Test in all cases: growth of human tumour cells (NCI), 48 h
MDA-MB-435 = test system: MDA-MB-435
BT-549 = test system: BT-549
NCI-H460 = test system: NCI-H460
COLO 205 = test system: COLO 205
HT-29 = test system: HT-29
SNB-75 = test system: SNB-75
SF-268 = test system: SF-268
K562 = test system: K562
A498 = test system: A498
Hs-578T = test system: Hs-578T
IGROV-1 = test system: IGROV-1
SK-MEL-28 = test system: SK-MEL-28
UO-31 = test system: UO-31
OVCAR-5 = test system: OVCAR-5
SK-OV-3 = test system: SK-OV-3
HCT-116 = test system: HCT-116
U-251 = test system: U-251
OVCAR-3 = test system: OVCAR-3
OVCAR-8 = test system: OVCAR-8
T47D = test system: T47D
Malme-3M = test system: Malme-3M
SF-539 = test system: SF-539
HCC 2998 = test system: HCC 2998
UACC-62 = test system: UACC-62
RXF 393 = test system: RXF 393
NCI-H226 = test system: NCI-H226
HOP-62 = test system: HOP-62
HCT-15 = test system: HCT-15
CCRF-CEM = test system: CCRF-CEM
A549 = test system: A549
EKVX = test system: EKVX
786-0 = test system: 786-0
PC-3 = test system: PC-3
SN12C = test system: SN12C
LOX IMVI = test system: LOX IMVI
SW-620 = test system: SW-620
NCI-H522 = test system: NCI-H522
ACHN = test system: ACHN
HL-60 = test system: HL-60
SF-295 = test system: SF-295
KM12 = test system: KM12
RPMI-8226 = test system: RPMI-8226
NCI-H23 = test system: NCI-H23
TK-10 = test system: TK-10
NCI/ADR-RES = test system: NCI/ADR-RES
OVCAR-4 = test system: OVCAR-4
CAKI-1 = test system: CAKI-1
UACC-257 = test system: UACC-257
SK-MEL-5 = test system: SK-MEL-5
SK-MEL-2 = test system: SK-MEL-2
MDA-MB-231 = test system: MDA-MB-231
MDA-N = test system: MDA-N
SR = test system: SR
MCF7 = test system: MCF7
HOP-92 = test system: HOP-92
M14 = test system: M14
MOLT-4 = test system: MOLT-4
DU-145 = test system: DU-145
SNB-19 = test system: SNB-19

O=C1NCC(CSc2nc3cc(C4CCCc5c4[nH]c4ccccc54)ccc3o2)N1 (configuration not stated)
GI50 (MDA-MB-435): 30.9 µM (inactive)
GI50 (BT-549): 47.1 µM (inactive)
GI50 (NCI-H460): 72.3 µM (inactive)
GI50 (COLO 205): 61.4 µM (inactive)
GI50 (HT-29): 21.8 µM (inactive)
GI50 (SNB-75): > 100 µM (inactive)
GI50 (SF-268): 36 µM (inactive)
GI50 (K562): 31.5 µM (inactive)
GI50 (A498): 18 µM (inactive)
GI50 (Hs-578T): 38.1 µM (inactive)
GI50 (IGROV-1): 33 µM (inactive)
GI50 (SK-MEL-28): 80.2 µM (inactive)
GI50 (UO-31): 53.1 µM (inactive)
GI50 (OVCAR-5): 61.8 µM (inactive)
GI50 (SK-OV-3): > 100 µM (inactive)
GI50 (HCT-116): 33.4 µM (inactive)
GI50 (U-251): 51.5 µM (inactive)
GI50 (OVCAR-3): 44.1 µM (inactive)
GI50 (OVCAR-8): 30.8 µM (inactive)
GI50 (T47D): 25.8 µM (inactive)
GI50 (Malme-3M): 53.7 µM (inactive)
GI50 (SF-539): 36.4 µM (inactive)
GI50 (HCC 2998): 95.1 µM (inactive)
GI50 (UACC-62): 39.6 µM (inactive)
GI50 (RXF 393): 26.5 µM (inactive)
GI50 (NCI-H226): 62.7 µM (inactive)
GI50 (HOP-62): > 100 µM (inactive)
GI50 (HCT-15): 24.5 µM
GI50 (CCRF-CEM): 35.2 µM (inactive)
GI50 (A549): 22.5 µM (inactive)
GI50 (EKVX): 25.6 µM (inactive)
GI50 (786-0): 43.3 µM (inactive)
GI50 (PC-3): 37.2 µM (inactive)
GI50 (SN12C): 49.7 µM (inactive)
GI50 (LOX IMVI): 32.5 µM (inactive)
GI50 (SW-620): 39.4 µM (inactive)
GI50 (NCI-H522): 29.2 µM (inactive)
GI50 (ACHN): 34.2 µM (inactive)
GI50 (HL-60): 43.9 µM (inactive)
GI50 (SF-295): 43.5 µM (inactive)
GI50 (KM12): 56.4 µM (inactive)
GI50 (RPMI-8226): 22.4 µM (inactive)
GI50 (NCI-H23): 32.5 µM (inactive)
GI50 (TK-10): 72.4 µM (inactive)
GI50 (NCI/ADR-RES): 50.4 µM (inactive)
GI50 (OVCAR-4): 32.2 µM (inactive)
GI50 (CAKI-1): 41.5 µM (inactive)
GI50 (UACC-257): 45.1 µM (inactive)
GI50 (SK-MEL-5): 28.5 µM (inactive)
GI50 (SK-MEL-2): 39.3 µM (inactive)
GI50 (MDA-MB-231): 23.1 µM (inactive)
GI50 (MDA-N): 42.8 µM (inactive)
GI50 (SR): 14.7 µM (inactive)
GI50 (MCF7): 39.7 µM (inactive)
GI50 (HOP-92): 21.2 µM (inactive)
GI50 (M14): 45.1 µM (inactive)
GI50 (MOLT-4): 15.2 µM (inactive)
GI50 (DU-145): 56 µM (inactive)
GI50 (SNB-19): 53.7 µM (inactive)

CC(=O)c1ccc(Nc2c3ccccc3nc3occc23)cc1
GI50 (MDA-MB-435): < 0.01 µM (active)
GI50 (BT-549): 2.12 µM (inactive)
GI50 (NCI-H460): 0.01 µM (active)
GI50 (COLO 205): < 0.01 µM (active)
GI50 (HT-29): < 0.01 µM (active)
GI50 (SNB-75): 0.0109 µM (active)
GI50 (SF-268): < 0.0105 µM (active)
GI50 (K562): < 0.01 µM (active)
GI50 (A498): 2.32 µM (inactive)
GI50 (Hs-578T): 0.0152 µM (active)
GI50 (IGROV-1): < 0.01 µM (active)
GI50 (SK-MEL-28): 0.643 µM (active)
GI50 (UO-31): 0.0196 µM (active)
GI50 (OVCAR-5): 0.327 µM (active)
GI50 (SK-OV-3): 0.0402 µM (active)
GI50 (HCT-116): < 0.01 µM (active)
GI50 (U-251): < 0.0124 µM (active)
GI50 (OVCAR-3): < 0.01 µM (active)
GI50 (OVCAR-8): 0.0174 µM (active)
GI50 (T47D): 0.011 µM (active)
GI50 (Malme-3M): < 0.01 µM (active)
GI50 (SF-539): < 0.01 µM (active)
GI50 (HCC 2998): 0.0498 µM (active)
GI50 (UACC-62): < 0.01 µM (active)
GI50 (RXF 393): < 0.01 µM (active)
GI50 (NCI-H226): 0.168 µM (active)
GI50 (HOP-62): 0.0127 µM (active)
GI50 (HCT-15): < 0.01 µM
GI50 (CCRF-CEM): < 0.01 µM (active)
GI50 (A549): 0.124 µM (active)
GI50 (786-0): < 0.01 µM (active)
GI50 (PC-3): < 0.01 µM (active)
GI50 (SN12C): 0.0172 µM (active)
GI50 (LOX IMVI): < 0.0143 µM (active)
GI50 (SW-620): < 0.01 µM (active)
GI50 (NCI-H522): < 0.01 µM (active)
GI50 (ACHN): < 0.01 µM (active)
GI50 (HL-60): < 0.01 µM (active)
GI50 (SF-295): < 0.01 µM (active)
GI50 (KM12): < 0.01 µM (active)
GI50 (RPMI-8226): < 0.01 µM (active)
GI50 (NCI-H23): 0.175 µM (active)
GI50 (TK-10): 0.0371 µM (active)
GI50 (NCI/ADR-RES): < 0.01 µM (active)
GI50 (OVCAR-4): < 0.0246 µM (active)
GI50 (CAKI-1): < 0.01 µM (active)
GI50 (UACC-257): 17.1 µM (inactive)
GI50 (SK-MEL-5): < 0.0219 µM (active)
GI50 (SK-MEL-2): 0.0108 µM (active)
GI50 (MDA-MB-231): 0.0194 µM (active)
GI50 (MDA-N): < 0.01 µM (active)
GI50 (SR): < 0.01 µM (active)
GI50 (MCF7): < 0.01 µM (active)
GI50 (HOP-92): 2.56 µM (inactive)
GI50 (M14): < 0.01 µM (active)
GI50 (MOLT-4): < 0.01 µM (active)
GI50 (DU-145): 0.0213 µM (active)
GI50 (SNB-19): < 0.0168 µM (active)
